# Measurements from PMC6511062, “Preclinical candidate for the treatment of visceral leishmaniasis that acts through proteasome inhibition” (Proceedings of the National Academy of Sciences of the …, 2019).
# “Also recorded” adds a separate entry of the source. Read-outs that look alike come from different tables or passages of the source.
# What was measured:
# [1] = Intrinsic clearance in mouse liver microsomes; type: in vitro ADME
# Method: page 13: 4. Parasite assays T. cruzi4, Leishmania donovani axenic amastigote, cidal axenic amastigote and intra- macrophage drug sensitivity assays were conducted as previously described5,6. a. […] Instead of a single readout at 72 h, multiple identical plates were used and read at different time points (24, 48, 72 h). Rate of kill curves showing the luminescence signal at each time point for each concentration were plotted. 5. […] The rate of intrinsic clearance (CLint) of each test compound was then calculated using the following calculation: CLint(mL/min/g liver) = k x V x Microsomal protein yield Where V (mL/mg protein) is the incubation volume/mg protein added and microsomal protein yield is taken as 52.5 mg protein/g liver. Verapamil (0.5 μM) was used as a positive control to confirm acceptable assay performance. 6. Pharmacokinetic studies. a. Mouse and dog PK Mouse pharmacokinetic studies were conducted in male CD-1 mice and male beagle dogs. 3 animals per group were used for each study performed. A dose of 3 mg/kg was administered intravenously, in a bolus form to mice and infused over a 30 min period to dogs. For all the intravenous studies compound were dissolved in 5% DMSO/20% kleptose in saline. A dose of 10 mg/kg was orally administered by gavage to the two species in a suspension of 1% methylcellulose to investigate oral pharmacokinetics. S13
# THP-1 cells = assay: Mammalian cell growth inhibition (THP-1); type: cell-based; conditions: Homo sapiens
# Excerpt: We hypothesized that, in view of their structural similarity, 1 and 2 probably shared the same mechanism of action.
# Trypanosoma cruzi = assay: T. cruzi phenotypic screening assay; type: cell-based; conditions: phenotypic screen, read-out: EC50 against T. cruzi
# Method: (§1) T. cruzi4, Leishmania donovani axenic amastigote, cidal axenic amastigote and intra-
# (§2) macrophage drug sensitivity assays were conducted as previously described5,6. […]
# (§3) 5. Intrinsic clearance (CLint) […]
# (§4) 6. Pharmacokinetic studies. […]
# [2] = tested on: L. donovani intramacrophage amastigotes; assay: L. donovani intramacrophage assay (amastigotes in differentiated THP-1 cells); type: cell-based, Leishmania donovani; conditions: Leishmania donovani
# Method: as §1, §2, §3, §4
# [3] = CAD (charged aerosol detector) solubility
# [4] = tested on: Salmonella typhimurium TA1535, TA1537, TA98, TA100 and Escherichia coli WP2uvrA(pKM101); assay: Bacterial mutation screening assay (Ames test), overall outcome; type: cell-based; conditions: presence and absence of S9-mix
# Method: i. Bacterial Mutation (Ames) Assay
# Compound 6 was tested in a bacterial mutation screening assay (Ames test) with Salmonella typhimurium TA1535, TA1537, TA98, TA100 and Escherichia coli WP2uvrA(pKM101) in the presence and absence of an exogenous mammalian oxidative metabolism system (S9-mix). The maximum concentration tested and […]
# Compound 6a was tested in a bacterial mutation screening assay (Ames test) with […]
# Compound 7a was tested in a bacterial mutation screening assay (Ames test) with […]
# The bacterial mutation screening assay was a plate incorporation test carried out as previously described15 and according to current methodology. […]
# [5] = Solubility in fasted simulated intestinal fluid (FaSSIF); conditions: fassif
# [6] = tested on: human proteasome catalytic subunits (THP-1 extracts); assay: Activity-based probe (UbiQ-018) labelling of THP-1 proteasome; type: binding; conditions: human THP-1 extracts, 100 µM
# [7] = tested on: L. donovani proteasome β subunits; assay: Activity-based probe (UbiQ-018) labelling of L. donovani proteasome; type: binding, Leishmania donovani; conditions: 100 µM
# Method: m. Activity-Based Probe Labelling of THP1 and L. donovani proteasome
# Proteasome enriched fractions from THP1 (20 µg), L. donovani (10 µg) and L. donovani […]
# µM for 1 h. Proteasome enriched fractions were also incubated with DMSO as control.
# For all proteasome labelling experiments, the active-site probe Me4BodipyFL-Ahx3Leu3VS (UbiQ-018) was used at final concentration of 500 nM in sucrose buffer (50 mM Tris buffer pH 7.5, 5 mM magnesium chloride, 1 mM EDTA, 50 mM NaCl, 250 mM sucrose, 2 mM ATP, 1 mM DTT). Proteasome enriched fractions treated with […]
# DMSO or test compounds, were incubated with the probe for 2h at RT. Samples were then denatured by addition of Laemmli sample buffer, heated to 95°C for 10 min and separated by electrophoresis on a 15% SDS-PAGE acrylamide gel. Following separation, gels were scanned in the fluorescein channel of a ChemiDoc reader (λ excitation/emission = 480/530 nm). Fluorescent proteins were excised and MALDI– TOF analysis carried out by the FingerPrints Proteomics service at the University of […]
# 10. Measuring Proteolytic activity of Leishmania tarentolae Proteasome […]
# pre-prepared as a 10 mM stocks in 100 % DMSO and then diluted 1 in 3, over 11 points, prior to dispense of 100 nl of each dilution series into black, low volume, 384-well microplates. Proteasome was prepared as a 0.5 µg/mL working solution in assay buffer (50 mM HEPES (pH 7.5), 150 mM NaCl, 5 mM MgCl2, 5% glycerol, 1 mM CHAPS) and 5 µL was added using a Multidrop Micro (Thermo Fisher Scientific) to all wells containing compound dilutions on the test microplates. The microplates were then centrifuged for 1 min at 1000 rpm and incubated for 15 mins at 25 °C, prior to an assay initiating addition of 5 µl of fluorogenic substrate, which had been prepared as a 1 µM […]
# The assay microplates were then centrifuged for 10 secs before using a Tecan M1000 Pro to monitor the increase of fluorescent intensity at 25 °C by excitation of the liberated Rhodamine110 at 485 nm and emission at 535 nm every 125 secs for 20 cycles. […]
# calculate initial rates of reactions for all assay wells on the microplate by fitting to a linear regression model. The initial rates of reaction for all compound concentrations tested were normalised to the initial rates determined for 16 replicate control wells per microplate of both uninhibited reaction and no-proteasome background, and subsequently, IC50 values were determined by fitting the normalised data to the following four-parameter logistic model; y = a + (( b – a) / ( 1 + ( 10 ^ x / 10 ^ c ) ^ d ), where ‘a’ is the minimum, ‘b’ is […], ‘c’ is the IC50 and ‘d’ is […].
# 11. Cryo-EM of 20S Leishmania tarentolae proteasome a. Purification of 20S Leishmania tarentolae proteasome. […]
# [8] = tested on: L. donovani promastigotes; assay: microbe, parasite or virus in culture; type: cell-based, Leishmania donovani; conditions: Leishmania donovani
# Method: 9. Mode of action studies a. Cell lines and culture conditions […]
# c. Generation of drug-resistant parasites […]
# donovani in the continuous presence of this compound. Starting at a sub-lethal […]
# After a total of 120 days in
# Genomic DNA was harvested from three independently generated L. donovani resistant clones and an age match control, as previously described27. PCR was performed using Platinum PCR Supermix (Invitrogen), as per manufacturer’s […]
# generated using primers SubunitB4FW and SubunitB4RV, then sequenced using primer SubunitB4FW (Table S6). To sequence the β5 subunit (LdBPK_361730.1), an […]
# sequenced using primer SubunitB5FW. PCR amplification and DNA sequencing were performed in triplicate for each independently generated cell line. The Leishmania donovani BPK282A1 sequences of the two subunits were identified in TriTrypDB and […]
# e. Generation of overexpression constructs and LdBOB transgenic cell lines The genes encoding the mutated versions of the β4 (LdBPK_360340.1) and the β5 […]
# parasites, were synthesised (GeneArt, Thermo Fischer Scientific). The synthetic genes, flanked by BamHI sites were cloned into the equivalent site of pIR1-SAT. The accuracy of all assembled constructs was verified by sequencing.
# Mid-log-phase L. donovani promastigotes (LdBOB) were transfected with overexpression constructs using the Human T-Cell Nucleofector kit and the Amaxa Nucleofector electroporator (program V-033). Following transfection, cells were […]
# to appropriate drug selection (100 µg/mL nourseothricin). Cloned cell lines were […]
# selection for one passage prior to experiments. […]
# [9] = tested on: chymotrypsin-like activity of the L. donovani proteasome; assay: biochemical; design: species or system Leishmania donovani; conditions: lysates from RES II and WT parasites
# Method: An in vitro assay was developed that enabled the chymotrypsin-like activity and additional proteolytic activities associated with the proteasome to be directly monitored within proteasome-enriched parasite cell lysates. Likewise, human proteasome from two sources (i.e., commercially pure 26S and enriched proteasome fractions from THP-1 lysates) was tested using the same biochemical assays.
# Proteasome enrichment by ultracentrifugation
# The protocol described by Kisselev et al.34 was adapted to enrich the proteasomes present in L. donovani and THP1 crude extracts. L. donovani or THP1 cells were resuspended in sucrose buffer (50 mM Tris buffer pH 7.5, 5 mM Magnesium chloride, 1 mM EDTA, 50 mM NaCl, 250 mM sucrose, 2 mM ATP, 1 mM DTT) and lysed by nitrogen cavitation for 15 min (110 bars of 1500 psi). Lysates were centrifuged at 20,000g for 30 min at 4 °C and supernatants containing soluble protein were subjected to an ultracentrifugation step at 300,000g for 2h at 4 °C. The resulting proteasome-containing pellets were resuspended in sucrose buffer and left on ice for 30 min to complete solubilization. Samples were centrifuged for 10 min at 20,000 g to remove insoluble material. Proteins contained in supernatant (proteasome enriched fraction) were measured by Bradford.
# Proteasome activity assays
# Compounds were dispensed into black 384-well assay plates (Greiner) by acoustic dispensing (LabCyte ECHO). For potency determinations, eleven-point, one in three dilution curves were generated, with a top concentration of 100 µM. Three proteasome activities were measured using a commercially available indirect enzyme-based luminescent assay kit (Promega) with Suc-LLVY-aminoluciferin, Z-LRR-aminoluciferin and Z-nLPnLD-aminoluciferin used as substrates for chymotrypsin-like, trypsin-like and caspase-like activities, respectively. In addition to proteasome samples: L. donovani and THP1-enriched proteasomes, commercially available human purified 26S proteasome (Boston Biochem) was also assessed.
# L. donovani (LV9) [10] = tested on: L. donovani (LV9); design: method as in PMID 11353640; conditions: similar mouse model, once daily; cited from earlier work
# L. donovani (LV9) [11] = assay: Mouse model of VL (in vivo efficacy in female Balb/C mice); design: species or system Leishmania donovani; conditions: 30 mg/kg u.i.d. (10 days PO)
# Method: Infected mice were dosed at 3, 10, or 25 mg/kg orally twice a day for 10 consecutive days. Two days after the termination of treatment, mice were euthanized, and the parasite burdens in their livers were determined.
# Peripheral blood samples were obtained at 5, 15, 30 min, 1, 2, 4, 6 ,8 and 24 h after intravenous administration and 15, 30, 45 min,1, 2, 4, 6, 8 and 24 h after oral administration. Blood was 1/2 diluted with milliQ water and immediately frozen on dry ice until analysis. Quantification was performed by means of LC-MS/MS (API4000), with a lower limit of quantification of 1 ng/mL. […]
# Data analysis and calculation of pharmacokinetic parameters was performed using Phoenix, WinNonLin Version 6.3. […]
# For both intravenous and oral administration, the systemic exposures were determined by calculating the area under the blood concentration time curve (AUC) from the start of dosing to the last observed quantifiable concentration (AUC0-t) by using the linear up-log down trapezoidal rule. The slope of the terminal elimination phase was estimated by linear regression of the terminal data points (minimum 3 points) from a natural log concentration versus time plot of the data. The half-life (t1/2) of the terminal elimination phase was calculated as t1/2 = 0.693/λ.
# 7. In vivo efficacy in female Balb/C mice
# To establish infection in mice, sodium stibogluconate-sensitive L. donovani (LV9, WHO designation: MHOM/ET/67/HU3) amastigotes were isolated from the spleen of a heavily infected donor hamster (Janvier, France)7. An inoculum containing 1.0 x 10^8 amastigotes/mL in Dulbecco’s modified eagles medium (high glucose) was prepared […]
# and female BalbC mice (Harlan, UK) then infected intravenously via the tail vein with a 0.2 mL bolus (equivalent to ~2.0 x 10^7 amastigotes). Infection was left to establish for […]
# daily orally as a suspension in 0.5% hydroxypropylmethylcellulose, 0.4% tween 80 and 0.5% benzyl alcohol. With twice daily regimens, the second daily dose was administered approximately 8 h following the first dose. Dose regimens evaluated were:
# 1. 50 mg/kg twice daily for 5 days
# 2. 25 mg/kg, 10 mg/kg and 3 mg/kg twice daily for 10 days
# 3. 25 mg/kg once daily for 10 days
# Miltefosine, as the only oral treatment for visceral leishmaniasis, was used as a […]
# [12] = L. donovani amastigotes in differentiated THP-1 cells, read-out: Intramacrophage EC50
compound,measurement,setting,value
O=C(Nc1cccc(-c2nc3ncccc3o2)c1)c1ccco1 [Compound 1],CLint,[1],24 mL/min/g
same,EC50,THP-1 cells,> 50000 nM
same,EC50,Trypanosoma cruzi,220 nM
same,EC50,[2]; [12],5700 nM
same,solubility,[3],58 µg/mL
O=C(Nc1cccc(-c2cn3cccnc3n2)c1)c1ccco1 [Compound 2],CLint,[1],8.5 mL/min/g
same,EC50,THP-1 cells,> 50000 nM
same,EC50,Trypanosoma cruzi,930 nM
same,EC50,[2]; [12],26000 nM
same,solubility,[3],≥ 162 µg/mL
O=C(Nc1ccc(F)c(-c2cn3nc(N4CCOCC4)cnc3n2)c1)N1CCCC1 [Compound 7a],CLint,[1],0.91 mL/min/g
same,AMES,[4],not mutagenic; also recorded: negative
same,EC50,THP-1 cells,> 50000 nM
same,solubility,[5],13 µg/mL
same,solubility,physchem,24 µg/mL
same,EC50,"[2]; THP-1, read-out: Intramacrophage EC50",410 nM
"CC(C)C[C@H](NC(=O)[C@H](Cc1ccccc1)NC(=O)c1cnccn1)B(O)O [bortezomib, reference compound]",UbiQ-018 labelling of proteasome subunits,[6],prevents labeling of proteasome subunits in all extracts
same,UbiQ-018 labelling of proteasome subunits,[7]; L. donovani WT extracts,prevents labeling of proteasome subunits in all extracts
same,UbiQ-018 labelling of proteasome subunits,[7]; L. donovani-resistant RES II extracts,prevents labeling of proteasome subunits in all extracts
same,EC50,[8]; RES I (compound 7-resistant clone),28 ± 1.4 nM
same,EC50,[8]; RES III (compound 7-resistant clone),32 ± 1.5 nM
same,EC50,[8]; WT promastigotes,31 ± 1.5 nM
same,"inhibition of chymotrypsin-like activity, RES II vs WT lysates",[9],equal potency
"CCCCCCCCCCCCCCCCOP(=O)([O-])OCC[N+](C)(C)C [miltefosine, reference compound]",ED90,L. donovani (LV9) [10],27 mg/kg
same,Reduction in parasite burden (compared to the vehicle control group),L. donovani (LV9) [11],99.9%
